Laboratory results reported in PMC12096829, “Maltodextrin transport in the extremely thermophilic, lignocellulose degrading bacterium Anaerocellum bescii (f. Caldicellulosiruptor bescii)” (Journal of Bacteriology, 2025).
Where “and” joins values, the source holds several entries; their conditions need not be identical. Equal values may be shown once. Read-outs that look alike come from different tables or passages of the source.

Legend:
[1] = biological target: T1, Athe_2310 (Anaerocellum bescii, UniProt A0ABY1S743); experiment: ITC of Athe_2310 with ɑ-glucan substrates; type: binding; settings: for Ka: Ka=1/Kd; for n (stoichiometry): single-site binding model
Method: Proteins were dialyzed into the following buffer: 50 mM HEPES, 300 mM NaCl, pH 7.0 via 10 kDa MWCO PES filter 20 mL Spin-X Concentrators (Corning). […] A standard titration experiment consisted of the protein sample at 50 µM and the sugar ligand at 500 µM. The stirring was set at 750 rpm. The 280 µL sample of protein was injected with a priming aliquot of 0.2 µL of sugar ligand, followed by 19 successive injections of 2.0 µL at 120 seconds intervals. Integrated heat effects were determined by non-linear regression using a single-site binding model (Microcal PEAQ-ITC Analysis). The fitted isotherms yield the binding dissociation constant and other thermodynamic parameters calculated using the differential form of the Gibbs Free Energy equation ΔGd=-RTln(Kd) . The slope of the binding isotherm at the equivalence point was used to determine the dissociation constant Kd .

[2] = test system: Athe_2310_Mut1 (D69F G279F G278F); experiment: DSC screen of mutant Athe_2310_Mut1 with maltodextrins; type: binding, Anaerocellum bescii; settings: Fig. S5, result in words
Description: We constructed mutant variants Athe_2310_Mut1 (D69F G279F G278F) and Athe_2574_Mut1 (G253F V254F P61W N63F D64F M322A W332A) that each contain point substitutions on residues predicted to be critical for both hydrophobic and hydrophilic contacts. In other words, the mutation of these residues is predicted to confer energetic penalties sufficiently large to prevent substrate binding. […] Similarly, Athe_2574_Mut1, with seven-point mutations due to its greater number of subsites, can no longer recognize maltodextrin substrates of any length (Fig. S6).
DSC measurements using a MicroCal PEAQ-DSC (Malvern Panalytical) were performed on Athe_2310 and Athe_2574 in combination with a variety of ɑ-glucans: trehalose (G2), maltose (G2), maltotriose (G3), maltotetraose (G4), maltopentaose (G5), and maltoheptaose (G7). The scan rate was set to […], with a max temperature of 130 °C. Protein was mixed with each sugar, yielding final concentrations of 2.5 mg/mL of protein and 5 mM of sugar. A total of 50 mM HEPES, 300 mM NaCl, pH 7.0, was used as the reference buffer. The heat capacity Cp was plotted against temperature and then normalized by the respective run’s maximum Cp value ( Cp,max ). We defined the melting temperature Tm as the temperature corresponding to Cp,max=Cp(T=Tm) . […]

[3] = biological target: T2, Athe_2574 (Anaerocellum bescii, UniProt A0ABY1S640); experiment: DSC thermal shift of Athe_2574 with ɑ-glucan substrates; type: binding; settings: for Tm: Athe_2574 + sugar, 2.5 mg/mL protein; for Tm / ΔTm: 5 mM sugar, 50 mM HEPES, 300 mM NaCl pH 7.0; for ΔTm: |Tm,holo − Tm,apo|
Description: (§1) In DSC, proteins are heated at a constant rate to induce thermal denaturation. This can be measured by an increase in the protein’s specific heat capacity Cp(T) as a function of temperature. The melting temperature Tm is defined as the temperature at which the protein attains its maximum heat capacity and becomes fully denatured ([46]). However, the presence of their cognate ligands can induce substrate-binding proteins to adopt a more thermally stable closed conformation, resulting in an increase in Tm ([47]). This ΔTm = |Tm,holo − Tm,apo| difference can be used to determine differential substrate specificity, as preferred ligands that are more tightly bound will yield larger ΔTm values. […] However, other short ɑ-glucans trehalose (ΔTm = 7.23 °C) and maltotriose (ΔTm = 6.63 °C) also yield substantial melting temperature differences. Melting temperature differences are subtler with longer oligosaccharides maltotetraose (ΔTm = 1.57 °C), maltopentaose (ΔTm = 0.95 °C), and maltoheptaose (ΔTm = 0.26 °C) (Fig. 4a). However, as binding of maltose to E. coli MBP is known to increase protein melting temperature by approximately 8 °C, depending on pH, it is unlikely binding is taking place between Athe_2310 and longer maltodextrins (G4–G7) due to their much smaller ΔTm values in comparison ([47], [48]).
(§2) DSC measurements using a MicroCal PEAQ-DSC (Malvern Panalytical) were performed on Athe_2310 and Athe_2574 in combination with a variety of ɑ-glucans: trehalose (G2), maltose (G2), maltotriose (G3), maltotetraose (G4), maltopentaose (G5), and maltoheptaose (G7). The scan rate was set to […], with a max temperature of 130 °C. Protein was mixed with each sugar, yielding final concentrations of 2.5 mg/mL of protein and 5 mM of sugar. A total of 50 mM HEPES, 300 mM NaCl, pH 7.0, was used as the reference buffer. The heat capacity Cp was plotted against temperature and then normalized by the respective run’s maximum Cp value ( Cp,max ). We defined the melting temperature Tm as the temperature corresponding to Cp,max=Cp(T=Tm) . The melting temperature difference ΔTm=|Tm,holo-Tm,apo| is defined as the absolute difference in melting temperature between the melting temperature of a protein-sugar mix and the same protein with no sugar present.

[4] = biological target: T2, Athe_2574; experiment: biochemical; type: binding; settings: for TΔS / ΔG / ΔH / Kd / Ka / n (stoichiometry): ITC 25 °C; for Kd: 50 mM HEPES; for Ka: Ka=1/Kd; for n (stoichiometry): single-site binding model
Method: Proteins were dialyzed into the following buffer: 50 mM HEPES, 300 mM NaCl, pH 7.0 via 10 kDa MWCO PES filter 20 mL Spin-X Concentrators (Corning). Measurements were performed at 25 °C using a MicroCal PEAQ Isothermal Titration Calorimeter (Malvern Panalytical). A standard titration experiment consisted of the protein sample at 50 µM and the sugar ligand at 500 µM. The stirring was set at 750 rpm. The 280 µL sample of protein was injected with a priming aliquot of 0.2 µL of sugar ligand, followed by 19 successive injections of 2.0 µL at 120 seconds intervals. Integrated heat effects were determined by non-linear regression using a single-site binding model (Microcal PEAQ-ITC Analysis). The fitted isotherms yield the binding dissociation constant and other thermodynamic parameters calculated using the differential form of the Gibbs Free Energy equation ΔGd=-RTln(Kd) . The slope of the binding isotherm at the equivalence point was used to determine the dissociation constant Kd . The […] Ka is defined as Ka=1/Kd .

[5] = biological target: T1, Athe_2310; experiment: DSC thermal shift of Athe_2310 with ɑ-glucan substrates; type: binding; settings: 5 mM sugar, 50 mM HEPES, 300 mM NaCl pH 7.0; for Tm: Athe_2310 + sugar, 2.5 mg/mL protein; for ΔTm: Athe_2310, |Tm,holo − Tm,apo|
Description: as §1, §2

[6] = test system: E. coli MBP; set-up: method as in PMID 9007986, doi:10.1007/s00723-020-01232-y; settings: depending on pH; cited from earlier work
[7] = Athe_2310, ITC 25 °C, 50 mM HEPES, 300 mM NaCl pH 7.0, read-out: Kd
[8] = 300 mM NaCl pH 7.0, read-out: Kd

T2 sequence (A0ABY1S640 entry or part of it): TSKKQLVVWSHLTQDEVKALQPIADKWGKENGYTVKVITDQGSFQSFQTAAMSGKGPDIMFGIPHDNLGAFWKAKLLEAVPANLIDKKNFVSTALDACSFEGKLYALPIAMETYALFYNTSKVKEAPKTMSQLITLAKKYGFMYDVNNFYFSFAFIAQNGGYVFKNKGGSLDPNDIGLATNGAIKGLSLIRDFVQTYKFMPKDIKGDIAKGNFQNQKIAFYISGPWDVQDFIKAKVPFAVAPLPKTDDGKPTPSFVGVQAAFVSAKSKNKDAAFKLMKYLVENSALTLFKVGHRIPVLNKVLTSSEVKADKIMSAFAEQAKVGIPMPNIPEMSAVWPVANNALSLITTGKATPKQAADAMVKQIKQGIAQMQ
T1 sequence (A0ABY1S743 entry or part of it): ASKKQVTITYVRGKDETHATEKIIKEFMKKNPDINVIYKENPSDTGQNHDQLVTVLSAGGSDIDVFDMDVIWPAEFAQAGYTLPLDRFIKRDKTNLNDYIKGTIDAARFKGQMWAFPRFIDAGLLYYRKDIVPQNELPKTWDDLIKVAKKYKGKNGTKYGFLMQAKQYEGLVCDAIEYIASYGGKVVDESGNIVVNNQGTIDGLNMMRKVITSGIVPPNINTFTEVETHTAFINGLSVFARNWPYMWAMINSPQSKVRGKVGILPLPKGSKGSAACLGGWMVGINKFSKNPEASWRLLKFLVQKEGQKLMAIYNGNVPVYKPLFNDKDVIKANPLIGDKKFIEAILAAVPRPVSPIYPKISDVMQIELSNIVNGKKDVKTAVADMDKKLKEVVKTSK

SMILES	TΔS ([1]; Athe_2310, ITC 25 °C) [kcal/mol]	ΔG ([1]; Athe_2310, ITC 25 °C) [kcal/mol]	ΔH ([1]; Athe_2310, ITC 25 °C) [kcal/mol]	Kd [1, 7] [µM]	Ka ([1]; Athe_2310, ITC 25 °C) [M⁻¹]	n (stoichiometry) ([1]; Athe_2310, ITC 25 °C)	binding to Athe_2310_Mut1 [2]	Tm [3]	ΔTm ([3]; Athe_2574) [°C]	TΔS [4] [kcal/mol]	ΔG [4] [kcal/mol]	ΔH [4] [kcal/mol]	Kd [4, 8] [µM]	Ka [4] [M⁻¹]	n (stoichiometry) [4]	Tm [5]	ΔTm [5] [°C]	further results
OC[C@H]1O[C@H](O[C@H]2[C@H](O)[C@@H](O)[C@@H](O[C@H]3[C@H](O)[C@@H](O)C(O)O[C@@H]3CO)O[C@@H]2CO)[C@H](O)[C@@H](O)[C@@H]1O (stereo partly drawn) [MalG3, D-Maltotriose]	-4.85	-7.21	-2.36 ± 0.38	5.21 ± 2.98	192000	0.79 ± 0.06	can no longer bind	101.47 °C	8.72	20.4	-4.48	-24.80 ± 2410	523	1900	1.57 ± 85.80	108.42 °C	6.63	Tm ([3]; listed as Maltotriose): 101.5 °C; Tm ([5]; listed as Maltotriose): 108.4 °C
OC[C@H]1O[C@H](O[C@H]2[C@H](O)[C@@H](O)[C@@H](O[C@H]3[C@H](O)[C@@H](O)[C@@H](O[C@H]4[C@H](O)[C@@H](O)C(O)O[C@@H]4CO)O[C@@H]3CO)O[C@@H]2CO)[C@H](O)[C@@H](O)[C@@H]1O (stereo partly drawn) [MalG4, D-Maltotetraose]								104.26 °C		0.664	-9.24	-9.90 ± 0.19	0.17 ± 0.04	5.848e+06	0.98 ± 0.01	103.36 °C		Tm ([3]; listed as Maltotetraose): 102.7 °C; Tm ([5]; listed as Maltotetraose): 103.4 °C
OC[C@H]1O[C@H](O[C@H]2[C@H](O)[C@@H](O)[C@@H](O[C@H]3[C@H](O)[C@@H](O)[C@@H](O[C@H]4[C@H](O)[C@@H](O)[C@@H](O[C@H]5[C@H](O)[C@@H](O)C(O)O[C@@H]5CO)O[C@@H]4CO)O[C@@H]3CO)O[C@@H]2CO)[C@H](O)[C@@H](O)[C@@H]1O (stereo partly drawn) [MalG5, D-Maltopentaose]								104.93 °C		-3.03	-9.56	-6.52 ± 0.07	0.1 ± 0.01	9.901e+06	0.90 ± 0.00	102.73 °C		Tm ([3]; listed as Maltopentaose): 104.9 °C; Tm ([5]; listed as Maltopentaose): 102.7 °C
OC[C@H]1O[C@H](O[C@H]2[C@H](O)[C@@H](O)[C@@H](O[C@H]3[C@H](O)[C@@H](O)[C@@H](O[C@H]4[C@H](O)[C@@H](O)[C@@H](O[C@H]5[C@H](O)[C@@H](O)[C@@H](O[C@H]6[C@H](O)[C@@H](O)[C@@H](O[C@H]7[C@H](O)[C@@H](O)C(O)O[C@@H]7CO)O[C@@H]6CO)O[C@@H]5CO)O[C@@H]4CO)O[C@@H]3CO)O[C@@H]2CO)[C@H](O)[C@@H](O)[C@@H]1O (stereo partly drawn) [MalG7, D-Maltoheptaose]								105.04 °C		-2.69	-9.98	-7.29 ± 0.04		2.0492e+07	0.82 ± 0.00	102.06 °C		Tm ([3]; listed as Maltoheptaose): 105.0 °C; Kd ([4]; Kd, 300 mM NaCl pH 7.0): 0.049 µM and 0.05 µM; Tm ([5]; listed as Maltoheptaose): 102.1 °C
OC[C@H]1O[C@H](O[C@H]2[C@H](O)[C@@H](O)[C@H](O)O[C@@H]2CO)[C@H](O)[C@@H](O)[C@@H]1O [Maltose, D-Maltose Monohydrate]	-3.85	-7.38	-3.53 ± 0.18		254000	0.76 ± 0.02	can no longer bind	97.8 °C								110.9 °C and 110.85 °C		Kd [1]: 3.93 ± 0.78 µM; increase of protein melting temperature on binding [6]: approximately 8 °C; ITC enthalpy changes of binding / fit of Kd and n ([4]; result in words): too small to fit meaningful
OC[C@H]1O[C@H](O[C@H]2O[C@H](CO)[C@@H](O)[C@H](O)[C@H]2O)[C@H](O)[C@@H](O)[C@@H]1O [Trehalose, D-Trehalose Dihydrate]	-4.45	-7.63	-3.18 ± 0.14	2.59 ± 0.5	386000	0.96 ± 0.02		92.8 °C and 92.69 °C	0.1							109.02 °C	7.23	binding to Athe_2574 judged from DSC melting profile ([3]; Athe_2574, result in words): absence of binding
